These results are taken from patent US12024584B2, “Methods and compositions for polyurethane dispersions using caprolactam-derived solvents” (AdvanSix Resins & Chemicals LLC, priority 2017, dated 2024).

Data set [1] in a line: MFFT of pigmented and complete PUDs. The class given is physicochemical. Conditions: pigmented and complete PUD, 3 wt. % coalescing agent. The text has this: (§1) Tests were first performed to determine the coalescing agent level for pigmented and complete PUD formulations in order to achieve the optimum film formation. Complete paints were mixed with 0.7 wt. %, 1.5 wt. %, 3.0 wt. % and 5.0 wt. % of coalescing agents and applied on tin plated steel at a wet film thickness of around 250 μm, where the weight percentage was based on the pure polyurethane dispersion resins. […] Based on the observations, 3 wt. % dosage of coalescing agent was selected. Complete PUD formulations with pigments, fillers and other additives were prepared as per Table 5, and used to test and determine the coalescing properties of the caprolactam-derived solvents and other known coalescing agents. The standard test for determining this temperature involves using a MFFT-BAR, as specified by standards ASTM D 2354 and ISO 2115. In general, the MFFT of a paint or coating is reduced temporarily by the use of coalescing agents.

Data set [2] in a line: Open time (ASTM D7488). The format is physicochemical. The settings on record: ASTM D7488, 23±2° C., 50±5% RH, wet film 200 μm.
Text: as §1, with “agents.” for “agents. The standard test for determining this temperature involves using a MFFT-BAR, as specified by standards ASTM D 2354 and ISO 2115. In general, the MFFT of a paint or coating is reduced temporarily by the use of coalescing agents.”
Open times were determined according to the ASTM D7488 “Test Method for Open Time of Latex” standard and the tests were performed under controlled temperature and humidity (23±2° C. and 50±5% RH). In general, the paints were applied at a wet film thickness of 200 μm on contrasting sealed charts by means of a doctor blade applicator, and “X” marks are made immediately with the wide curved end of a wooden paint brush. After a determined time internal, the brush was dipped into the paint to be tested and brushing of the X-marks was started in perpendicular direction to the initial drawdown using 10 strokes back and forth to work the paint under test into the drawdown area. This procedure is repeated after several time intervals. After their complete drying (1 week), the painted panels are observed by two different observers and the time for which the “X” marks to become visible is considered as the open time.

A short description of data set [3]: Drying time (ASTM D1640 / ASTM D5895). The format is physicochemical. The settings on record: 200 μm humid film; blends by ASTM D1640, single solvents by ASTM D5895.
Text: as §1, with “agents.” for “agents. The standard test for determining this temperature involves using a MFFT-BAR, as specified by standards ASTM D 2354 and ISO 2115. In general, the MFFT of a paint or coating is reduced temporarily by the use of coalescing agents.”
The drying times for the pigmented PUD formulations were determined according to the ASTM D1640 “Standard Test Methods for Drying, Curing, or Film Formation of Organic Coatings” standard or the ASTM D5895 “Standard Test Methods for Evaluating Drying or Curing During Film Formation of Organic Coatings Using Mechanical Recorders” standard. Four stages of drying can be identified depending on the trace left by the needle on the paint surface: Stage 1—Set-to-Touch time, Stage 2—Tack-Free time, Stage 3—Dry-Hard time, and Stage IV—Dry trough time. However, Stage IV is often hard to detect.
In general, the paints were applied at a humid film thickness of 200 μm by means of a bar coater on a Leneta sheet and the needle rate was set at 60 cm/hr.
For the present examples, the drying times for the 2:1 A:B, 1:1 A:B, and 1:2 A:B solvents were determined using the ASTM D1640 standard, and the drying times for NM CPL, NE CPL, NMP, NBP, ester amide, and ester alcohol were determined using the ASTM D5895 standard.

Data set [4] is described as follows: Persoz hardness of pigmented and complete PUDs. The format is physicochemical. Conditions: pigmented.
Text: as §1, with “agents.” for “agents. The standard test for determining this temperature involves using a MFFT-BAR, as specified by standards ASTM D 2354 and ISO 2115. In general, the MFFT of a paint or coating is reduced temporarily by the use of coalescing agents.”
Persoz hardness measurements were performed on pigmented paints that were applied on tin plated steel using a doctor blade applicator at a dry film thickness (DFT) around 50 μm according to the ISO 1522 standard. […] For instance, the 28 day hardness for N-ethyl caprolactam (NE CPL) was approximately 104.6±0.5, while the 28 day hardness for NMP was approximately 108.8±2.4, and the 28 day hardness for ester alcohol and N-methyl caprolactam (NM CPL) were approximately 124.8±1 and 126.0±1, respectively, while the 28 day hardness for NBP was approximately 135.8±5.

The nature of data set [5]: Gloss of pigmented and complete PUDs (ISO 2813). The class given is physicochemical.
Text: as §1, with “agents.” for “agents. The standard test for determining this temperature involves using a MFFT-BAR, as specified by standards ASTM D 2354 and ISO 2115. In general, the MFFT of a paint or coating is reduced temporarily by the use of coalescing agents.”
(§2) Gloss measurements serve as an indicator of the paints surface quality. Gloss and color measurements were determined according to the ISO 2813 standard and the ISO 7724-2 standard (SCI-D65/10°), respectively.

Data set [6] is described as follows: Color of pigmented and complete PUDs (ISO 7724-2). The class given is physicochemical.
Text: as §1, with “agents.” for “agents. The standard test for determining this temperature involves using a MFFT-BAR, as specified by standards ASTM D 2354 and ISO 2115. In general, the MFFT of a paint or coating is reduced temporarily by the use of coalescing agents.”
as §2

Data set [7] can be described thus: Scrub resistance of pigmented and complete PUDs (ISO 11998). Conditions: for Wt. Loss: 200 wet-scrub cycles; for Loss of thickness after 200 wet-scrub cycles: calculated from weight loss. The format is physicochemical.
Text: as §1, with “agents.” for “agents. The standard test for determining this temperature involves using a MFFT-BAR, as specified by standards ASTM D 2354 and ISO 2115. In general, the MFFT of a paint or coating is reduced temporarily by the use of coalescing agents.”
Scrub resistance was tested according the ISO 11998 “Paints and Varnishes—Determination of Wet-Scrub Resistance and Cleanability of Coatings” standard. In this testing method, the paint was applied on a test panel (Leneta sheet) using a film applicator at the specific gap clearance. After drying and conditioning for four weeks at room temperature the coated panel was weighed and subject to 200 wet-scrub cycles in a scrub resistance machine. The panel was then washed, dried and weighed to determine the loss from which the mean loss in film thickness was calculated. […] For instance, N-methyl caprolactam (NM CPL), N-ethyl caprolactam (NE CPL), and blends thereof in the ratios of 1:2 and 1:1, all had less loss of thickness (2.035 μm, 1.797 μm, 1.39 μm, and 1.64 μm, respectively) as compared to NMP (2.090 μm) and NBP (2.213 μm).

Data set [8] is described as follows: Freeze and thaw stability (ASTM D2243-95). The class given is physicochemical. The settings on record: cycles of 16 hours at −20° C. and 8 hours at room temperature. How it is done: Water-based emulsions and dispersions are susceptible to irreversible coagulation by freezing. Freeze and thaw stability was tested according the ASTM D2243-95 standard.
For these examples, pigmented PUD paints were subject to freeze-thaw cycles of 16 hours at −20° C. and 8 hours at room temperature and subsequently subject to visible observations. The paints were then applied on a tin plated steel plate at a thickness of approximately 200 μm for observing film properties.
In addition, the freeze-thaw stability was best for caprolactam-derived coalescing agents (NM CPL) and the blends even after subject to five cycles (see FIG. 9). In particular, the paints were visually observed after each cycle to see if there was any viscosity change, i.e., thickening of the paint. Then, the dry films of the coatings were observed visually.

A short description of data set [9]: Solubility of DMPA in solvents. How it is done:
Solubility was tested between the various solvents to determine their applicability in the PUD manufacturing processes. Solubility is the amount of a substance (coalescing agent) that dissolves in a unit volume of a liquid substance (solvent) to form a saturated solution under specified conditions of temperature and pressure. For the examples, amounts of […] (DMPA) were dissolved in each solvent.

A short description of data set [10]: Minimum film forming temperature, non-pigmented resin + coalescing agent. The format is physicochemical. Conditions: resin with 5 wt. % coalescing agent, film thickness 350 μm.

Where two headings read alike, the source gives them in different places.

In the case of “2, 2, 4-trimethyl-1,3-pentanediol monoisobutyrate [Ester alcohol, reference compound]”, the MFFT in data set [1] is −0.4 °C. Besides, in [2], the “Open Time” value is 10 min. In addition, the “Drying Time” value in data set [3] is listed as 13.6 min. Besides, the “Persoz Hardness” value in [4] (1 Day, in s) is listed as 98.2 ± 3. For the same compound, the “Persoz Hardness” value in data set [4] (7 Days, in s) amounted to 118.0 ± 1. Besides, the “Persoz Hardness” value in data set [4] (14 Days, in s) stood at 120.0 ± 2. In addition, in data set [4] (21 Days, in s), the “Persoz Hardness” value was 122.0 ± 2. For the same compound, the “Persoz Hardness” value in data set [4] (28 Days) is listed as “approximately 124.8±1”. Further, in data set [4] (28 Days, in s), the “Persoz Hardness” value amounted to 124.8 ± 1. Moreover, in data set [5], the “Gloss 20°” value is 1.3 ± 0, the “Gloss 60°” value is listed as 3.0 ± 0 and the “Gloss 85°” value amounted to 19.6 ± 0.3. For the same compound, in [6], the “Color (Black background) L*” value is reported as 94.93, the “Color (Black background) a*” value is given as −0.87, the “Color (Black background) b*” value is 2.30 and the “Color (White background) L*” value was determined as 95.6. In addition, in data set [6], the “Color (White background) a*” value is recorded as −0.51 and the “Color (White background) b*” value came out at 3.16. In [7], the “Wt. Loss” value stood at 7.747 g/m^2 and the “Loss of thickness after 200 wet-scrub cycles” value (from here on “Loss of thickness”) is listed as 4.439 µm. Also, the “freeze-thaw stability: viscosity change (thickening of the paint)” value in data set [8] is recorded as “thickening of the paint samples after two cycles”.

Regarding `COC(=O)CCCCC(=O)N(C)C` [Ester amide, Hexanoic acid, 6-(dimethylamino)-6-oxo, methyl ester], in [9] (DMPA dissolved in each solvent), the Solubility is reported as 10.0 g/100 g of Solvent. The compound also returned an MFFT in [1] of −0.6 °C. The “Open Time” value in [2] is listed as 12 min. For the same compound, the “Drying Time” value in data set [3] was 13.3 min. In data set [5], the “Gloss 20°” value was 1.3 ± 0, the “Gloss 60°” value was determined as 3.3 ± 0 and the “Gloss 85°” value is 24.2 ± 0.2. Also, in data set [6], the “Color (Black background) L*” value is 93.84, the “Color (Black background) a*” value is −1.05, the “Color (Black background) b*” value came out at 2.03 and the “Color (White background) L*” value is listed as 94.98. In data set [6], the “Color (White background) a*” value was −0.51 and the “Color (White background) b*” value turned out to be 3.29. In addition, in [7], the “Wt. Loss” value is recorded as 7.920 g/m^2 and the “Loss of thickness” value is on record as 4.040 µm.

On to `CCCCN1CCCC1=O` [NBP, N-butyl pyrrolidone, reference compound], for which the MFFT in data set [10] is −0.4±0.2 °C. This compound gave an MFFT in data set [1] of −0.7 °C. Also, the “Open Time” value in [2] is on record as 12 min. In addition, the “Drying Time” value in data set [3] stood at 11.8 min. For the same compound, the “Persoz Hardness” value in [4] (1 Day, in s) is given as 64.4 ± 3. Moreover, in data set [4] (7 Days, in s), the “Persoz Hardness” value is given as 127.0 ± 2. Moreover, the “Persoz Hardness” value in [4] (14 Days, in s) is recorded as 133.2 ± 5. In addition, in data set [4] (21 Days, in s), the “Persoz Hardness” value came to 136.6 ± 6. Further, in data set [5], the “Gloss 20°” value amounted to 1.3 ± 0, the “Gloss 60°” value amounted to 2.8 ± 0 and the “Gloss 85°” value is on record as 19.9 ± 0.2. Moreover, in data set [6], the “Color (Black background) L*” value was 94.00, the “Color (Black background) a*” value is on record as −1.04, the “Color (Black background) b*” value worked out at 2.20 and the “Color (White background) L*” value came to 95.01. In addition, in data set [6], the “Color (White background) a*” value is given as −0.56 and the “Color (White background) b*” value was determined as 3.32. Also, in data set [7], the “Wt. Loss” value is 4.142 g/m^2 and the “Loss of thickness” value was 2.213 µm. For the same compound, in data set [8], the “freeze-thaw stability: viscosity change (thickening of the paint)” value is listed as “thickening of the paint samples after two cycles”.

In the case of `CN1CCCC1=O` [NMP, N-methyl pyrrolidone, reference compound], the Solubility in [9] is listed as 54.0 g/100 g of Solvent. The compound also came in with an MFFT in data set [1] of −1.4 °C. Further, the “Open Time” value in data set [2] turned out to be 12 min. Besides, the “Drying Time” value in data set [3] stood at 19.8 min. Further, in data set [4] (1 Day, in s), the “Persoz Hardness” value is 94.2 ± 0.4. For the same compound, in data set [4] (7 Days, in s), the “Persoz Hardness” value was 101.0 ± 2.4. Besides, in data set [4] (14 Days, in s), the “Persoz Hardness” value was 100.6 ± 1.7. Moreover, the “Persoz Hardness” value in [4] (21 Days, in s) was 107.6 ± 1.3. Moreover, in [5], the “Gloss 20°” value came to 1.3 ± 0, the “Gloss 60°” value is 3.6 ± 0 and the “Gloss 85°” value was 30.7 ± 0.6. Moreover, in [6], the “Color (Black background) L*” value is on record as 94.55, the “Color (Black background) a*” value was −0.88, the “Color (Black background) b*” value is on record as 2.20 and the “Color (White background) L*” value is 95.14. In [6], the “Color (White background) a*” value is on record as −0.52 and the “Color (White background) b*” value stood at 3.02. For the same compound, in data set [7], the “Wt. Loss” value worked out at 3.372 g/m^2 and the “Loss of thickness” value is 2.090 µm.

Turning to `CCCCN1CCCCCC1=O` [N—BuCPL, N-butyl caprolactam], in data set [9], the Solubility is 10.0 g/100 g of Solvent. The MFFT in data set [10] was −1.3±0.3 °C.
